Measured values as given in ChEMBL document CHEMBL1759920, “C20-trifluoro-5-oxo-ETE: a metabolically stable 5-oxo-ETE derivative” (Bioorg Med Chem Lett, 2011).
The source made the active and inactive calls. No cut-off for these calls is given here.

Experiments:
Neutrophil [1] = assay: Induction of intracellular calcium level in indo-1-labeled human neutrophils cells assessed as calcium mobilization relative to 5-oxo-ETE; assay type: functional
Oxoeicosanoid receptor 1 [2] = target: T1, Oxoeicosanoid receptor 1 (Homo sapiens, UniProt Q8TDS5); assay: Desensitization of 5-oxo-ETE receptor in indo-1-labeled human neutrophils assessed as inhibition of 5-oxo-ETE-induced calcium mobilization; assay type: functional
T1 sequence (Q8TDS5 whole entry): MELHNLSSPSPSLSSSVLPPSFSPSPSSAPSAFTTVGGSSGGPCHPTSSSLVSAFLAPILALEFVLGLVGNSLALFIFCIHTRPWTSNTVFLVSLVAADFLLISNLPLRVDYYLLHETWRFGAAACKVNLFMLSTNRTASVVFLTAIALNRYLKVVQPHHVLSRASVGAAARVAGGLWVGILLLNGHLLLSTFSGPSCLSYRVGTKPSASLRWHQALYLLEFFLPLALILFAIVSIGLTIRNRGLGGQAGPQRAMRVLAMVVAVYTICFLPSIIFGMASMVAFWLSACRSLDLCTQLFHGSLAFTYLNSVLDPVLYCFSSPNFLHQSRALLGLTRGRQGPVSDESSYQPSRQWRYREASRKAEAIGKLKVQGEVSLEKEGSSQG

Oxoeicosanoid receptor 1 [3] = target: T1, Oxoeicosanoid receptor 1; assay: Agonist activity at 5-oxo-ETE receptor in indo-1-labeled human neutrophils assessed as stimulation intracellular calcium level at 100 nM followed by 5-oxo-ETE addition at 2.5 mins in presence of digitonin added at 3.5 mins; assay type: functional, cell-based
Neutrophil [4] = assay: Induction of intracellular calcium level in indo-1-labeled human neutrophils cells assessed as calcium mobilization; assay type: functional, cell-based

| Activity (Oxoeicosanoid receptor 1 [3]) | EC50 (Neutrophil [4]) | SMILES | Activity (Neutrophil [1]) | IC50 (Oxoeicosanoid receptor 1 [2]) |
| --- | --- | --- | --- | --- |
| Active | – | O=C(O)CCCC(=O)/C=C/C=C\C/C=C\C/C=C\CCCCC(F)(F)F | 50% | 7.5 nM |
| – | 4 nM | CCCCC/C=C\C/C=C\C/C=C\C=C\C(=O)CCCC(=O)O [5-OXO-ETE] | – | 3 nM |
